We go through two compounds from patent US20230135524A1, “ARYL HYDANTOIN HETEROCYCLES AND METHODS OF USE” (The United States of America,as represented by the …, priority 2020, published 2023).

One data set concerns the target T1, AR (Homo sapiens, UniProt P10275).
T1 construct: host or cells: HEK 293T
T1 sequence (P10275 1-920): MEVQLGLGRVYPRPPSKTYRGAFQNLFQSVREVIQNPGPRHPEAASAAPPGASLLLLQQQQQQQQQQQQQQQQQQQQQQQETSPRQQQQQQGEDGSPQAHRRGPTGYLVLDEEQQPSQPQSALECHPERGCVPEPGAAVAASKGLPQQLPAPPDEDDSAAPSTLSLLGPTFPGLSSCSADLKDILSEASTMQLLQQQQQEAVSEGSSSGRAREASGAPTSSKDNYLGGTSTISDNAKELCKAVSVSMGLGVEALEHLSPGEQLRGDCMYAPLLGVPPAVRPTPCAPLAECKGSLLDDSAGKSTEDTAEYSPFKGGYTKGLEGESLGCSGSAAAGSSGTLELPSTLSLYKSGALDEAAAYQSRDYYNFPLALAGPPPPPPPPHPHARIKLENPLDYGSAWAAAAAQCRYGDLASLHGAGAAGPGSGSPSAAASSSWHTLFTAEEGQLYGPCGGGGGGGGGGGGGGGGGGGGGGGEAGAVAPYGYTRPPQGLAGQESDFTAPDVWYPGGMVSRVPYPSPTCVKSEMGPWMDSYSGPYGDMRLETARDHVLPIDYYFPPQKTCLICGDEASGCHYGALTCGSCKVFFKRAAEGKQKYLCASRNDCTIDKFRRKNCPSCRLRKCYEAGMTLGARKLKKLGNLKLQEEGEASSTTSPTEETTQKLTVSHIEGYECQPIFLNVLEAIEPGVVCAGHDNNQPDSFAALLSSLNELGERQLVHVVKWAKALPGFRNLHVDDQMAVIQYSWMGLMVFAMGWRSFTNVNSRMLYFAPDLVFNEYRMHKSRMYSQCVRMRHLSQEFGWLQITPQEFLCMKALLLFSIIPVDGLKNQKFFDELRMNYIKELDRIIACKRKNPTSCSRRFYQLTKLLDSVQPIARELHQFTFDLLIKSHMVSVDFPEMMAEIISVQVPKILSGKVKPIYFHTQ
Nature of the data set: AR transcriptional output, ARE-luciferase assay in HEK 293T cells. It counts as cell-based. On the procedure: 100% is set to the activity with 200 μM testosterone, and 0% is set to the basal level (no ligand).
Cells were maintained in steroid free media, and stimulated with 200 μM testosterone, followed immediately by administration of exemplary compounds (Table 1, below). RLU is relative luciferase units, relative to DMSO control with 200 μM testosterone alone. Data represent an average of 3 independent experiments performed in triplicate wells per compounds at 10 μM.
Cells were maintained in steroid-free media, and stimulated with 200 μM testosterone, followed immediately by administration of a test compound. […] Compounds were dosed at 10 μM in FIGS. 6A and 6B.
Cells were maintained in steroid-free media, and stimulated with 200 μM testosterone, followed immediately by administration of a test compound.

A further data set addresses T2, Androgen Receptor (UniProt P10275).
T2 sequence (P10275 1-920): T1 sequence (P10275 1-920)
In words: Radioligand competition binding, [3H] methyltrienolone. The conditions noted are these: competition with 0.5 nM [3H] methyltrienolone. As to the method: (§1) Binding assays were performed via competition with radioactive ligands across a range of dose of compounds 15a and 19d. For aldosterone binding, the aldosterone receptor was incubated for 20 hours with […] aldosterone. Similarly, the androgen receptor was co-incubated with 0.5 nM of [^3H] methyltrienolone, the estrogen receptor alpha was co-incubated with 0.5 nM [^3H] estradiol, the glucocorticoid receptor with 0.5 nM [^3H] dexamethasone, and the progesterone receptor with 0.5 nM [^3H] progesterone as parent ligands.

The target of another data set is T3, Progesterone Receptor B (Homo sapiens, UniProt P06401).
T3 sequence (P06401 1-933): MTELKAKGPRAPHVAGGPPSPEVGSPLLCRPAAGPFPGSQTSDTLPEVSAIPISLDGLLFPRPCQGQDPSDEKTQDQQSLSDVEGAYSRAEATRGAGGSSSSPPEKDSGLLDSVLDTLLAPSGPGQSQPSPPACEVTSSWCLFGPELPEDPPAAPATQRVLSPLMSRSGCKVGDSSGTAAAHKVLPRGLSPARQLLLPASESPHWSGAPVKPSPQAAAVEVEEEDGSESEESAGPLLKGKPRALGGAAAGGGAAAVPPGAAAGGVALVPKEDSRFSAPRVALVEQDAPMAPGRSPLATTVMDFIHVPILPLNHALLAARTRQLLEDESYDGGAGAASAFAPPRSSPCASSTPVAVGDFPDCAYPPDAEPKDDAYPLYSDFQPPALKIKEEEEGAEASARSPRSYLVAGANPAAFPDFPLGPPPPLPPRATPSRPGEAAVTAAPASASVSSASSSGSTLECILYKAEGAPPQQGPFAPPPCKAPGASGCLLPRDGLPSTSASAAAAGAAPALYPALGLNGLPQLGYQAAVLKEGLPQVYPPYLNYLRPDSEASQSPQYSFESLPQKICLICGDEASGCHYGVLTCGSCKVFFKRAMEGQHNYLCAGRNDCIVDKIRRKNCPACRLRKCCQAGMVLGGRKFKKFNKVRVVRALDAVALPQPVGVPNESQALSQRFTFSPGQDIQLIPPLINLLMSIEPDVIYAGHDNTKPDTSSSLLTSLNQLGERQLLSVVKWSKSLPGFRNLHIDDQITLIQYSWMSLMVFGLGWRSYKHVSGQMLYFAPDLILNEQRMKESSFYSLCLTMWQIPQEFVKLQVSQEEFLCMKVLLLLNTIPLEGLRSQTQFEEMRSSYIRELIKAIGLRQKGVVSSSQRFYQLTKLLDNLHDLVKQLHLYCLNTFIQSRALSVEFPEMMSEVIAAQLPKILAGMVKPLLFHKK
In words: Radioligand competition binding, [3H] progesterone. Conditions: competition with 0.5 nM [3H] progesterone. On the procedure:
as §1
In general terms: Loss of bound radioactivity is the signal in a displacement assay; it reports binding, not function.

Data set [1] can be described thus: Pharmacokinetics in non-tumor bearing BALB/C mice, IV and PO. Conditions: for Cmax—D: dose-normalised; for Tmax / half-life: mouse, plasma. It counts as in vivo. As to the method: FIG. 14A-B are graphs of time (hours) versus plasma concentration (ng/mL) for intravenous (IV) (FIG. 14A) and oral (PO) (FIG. 14B) administration of 15a and 15n over 12 hours. Error bars represent the standard deviation in ng/mL from three independent mice per time point.
Clearance, Cmax, half life, dose/AUC, and bioavailability were calculated by statistical analysis using PHOENIX™ WINNONLIN™ v7.0 (Certara, Princeton, N.J.). The results are shown in FIGS. 14A and 14B and Table 4.

In general, IC50 refers to the concentration that gives 50% inhibition. Higher therefore signals lower potency. By Tmax is commonly meant the time at which the peak concentration occurs. As a reminder, the half-life is the time in which the quantity being followed falls by half.

Regarding `CC1(C)C(=O)N(c2ccc(C#N)c(C(F)(F)F)c2)C(=S)N1Cc1ccc(-c2c[nH]nn2)cc1` [Compound 15a, 4-(3-(4-(1H-1,2,3-triazol-4-yl)benzyl)-4,4-dimethyl-5-oxo-2-thioxoimidazolidin-1-yl)-2-(trifluoromethyl)benzonitrile], the “antagonist or inverse agonist activity on AR transcriptional activity (in words)” value on AR (10 μM, HEK 293T, FIG. 6A) is reported as “reduced the transcriptional activity of the AR well below the expression in the absence of any steroids or ligands”. The activity at 10 µM at AR (HEK-293T, read-out: AR antagonist activity (% RLU)) is -109%. Further, the figures for the IC50 on Androgen Receptor and at Progesterone Receptor B were 12.5 nM and 103 nM, respectively. Further, the “Cmax—D” value in data set [1] (IV, 1 mg/kg) turned out to be 453 kg·ng/mL/mg; in data set [1] (PO, 20 mg/kg), 412 kg·ng/mL/mg. Also, the Tmax in data set [1] (IV, 1 mg/kg) came to 2 h; in data set [1] (PO, 20 mg/kg), 2 h. Besides, the half-life is 18 h in data set [1] (IV, 1 mg/kg) and 20.6 h in data set [1] (PO, 20 mg/kg).

Regarding `CC1(C)C(=O)N(c2ccc(C#N)c(C(F)(F)F)c2)C(=S)N1Cc1ccc(-c2c[nH]nn2)cc1F` [Compound 19d, 4-(3-(2-Fluoro-4-(1H-1,2,3-triazol-4-yl)benzyl)-4,4-dimethyl-5-oxo-2-thioxoimidazolidin-1-yl)-2-(trifluoromethyl)benzonitrile], the values for the IC50 at Androgen Receptor and at Progesterone Receptor B were 9.3 nM and 76.3 nM, respectively.
